Patent US8440688B2, “Compounds, formulations and methods for reducing skin wrinkles, creasing and sagging” (Galderma Laboratories Inc., priority 2007, dated 2013)

System: severe wrinkling on their face
Experiment: Topical application of COL-118 to facial wrinkles (Example 18)
Assay type: in vivo, human
Settings: middle-aged person, topical 0.2% COL-118
Method: A middle-aged person has severe wrinkling on their face. They apply 0.2% COL-118 (an α2 adrenergic receptor agonist supplied by CollaGenex Pharmaceuticals, Inc., Newtown, Pa.). Wrinkling is noticeably diminished within 5 minutes by casual observation. After about 10 minutes, nearly all the wrinkles are gone. The effect lasts at least 8 hr.

SMILES: Brc1c(NC2=NCCN2)ccc2nccnc12 [COL-118]
- Duration of the wrinkle-reducing effect: at least 8 hr
- Time after which nearly all the wrinkles are gone: about 10 minutes
- Time until wrinkling is noticeably diminished (casual observation): ≤ 5 min
